{"source": "patent US5968763A", "about": "“Method for screening inhibitors of the enzyme which cleaves the anchor of surface proteins from gram positive bacteria” (The Rockefeller University, priority 1997, dated 1999)", "tested_on": "LPXTGX cleavage enzyme (carbonate extract of D471 membranes)", "assay": "Cleavage of 125I-labeled LPSTGE synthetic peptide linked to beads (release of radiolabel) by carbonate extract of streptococcal membranes", "type": "biochemical, M type 6 streptococcal strain D471 (Streptococcus pyogenes)", "details": "carbonate extract of the membranes as enzyme source, FIG. 3; for cleavage activity in the presence of inhibitor: 1 mM each", "method": "The peptide was radiolabeled with ^125 I using Iodobeads and then the labeled peptide was purified on a Sephadex G10 column and covalently linked by its N-terminal end by EDC (ethyl-3-(3 […])carbodiimide HCl) to an extended arm on a commercially available bead (3M Emphase Biospheres AB1 from Pierce, Rockford, Ill.), and the excess radiolabel removed by washing the beads with 1 M NaCl buffer.\nM type 6 streptococcal strain D471 was treated with 0.1 M sodium carbonate (pH 11.5) and incubated for 30 minutes at 0° C. to extract the streptococcal membranes.\nThe resulting extract was mixed with the labeled beads of Example 1 (50 μl sample, 50 μl 50 mM Tris HCl (pH 8.0) with 10 mM DTT).\nThe carbonate extract was chromatographed on a 20 HQ perfusion chromatography column, using a Biocad Sprint instrument (Perceptive Biosystem), employing a NaCl gradient from 0 mM to 500 mM (24.9 ml) followed by a 500 mM to 1000 mM (33.2 ml) gradient. To measure the enzyme activity found in the fractions, a 50 μl sample from each fraction was mixed in a reaction buffer in a final volume of 100 μl containing 5 mM DTT and 5 μl of the bead-substrate as described in Example 1. Control samples containing only buffer and the substrate were also mixed and incubated at 37° C. for 4 hours under constant slow rotation. The released radioactivity was then measured in 25 μl of the supernatant obtained after centrifugation. The specific activity was measured after subtracting the control values from the test samples.\nFIG. 3 illustrates the enzymatic activity of the carbonate extract of the membranes (as the enzyme source) in the presence of various inhibitors and activators.", "data": [{"smiles": "[Ca+2]", "note": "[calcium]", "values": [{"measurement": "enzymatic (cleavage) activity in the presence of divalent cations", "setting": "divalent cations such as calcium", "result": "enhanced"}]}, {"smiles": "OC(CS)C(O)CS", "note": "(stereo not shown) [DTT]", "values": [{"measurement": "enzymatic (cleavage) activity in the presence of activator", "setting": "5 mM DTT", "result": "enhanced"}]}, {"smiles": "O=S(=O)(O)c1cc[c]([Hg][OH])cc1", "note": "[PHMPS, parahydroxymercuriphenylsulfonic acid]", "values": [{"measurement": "cleavage activity in the presence of inhibitor", "result": "inhibited cleavage activity"}]}, {"smiles": "O=C(O)c1cc[c]([Hg][OH])cc1", "note": "[PHMB, parahydroxymercuribenzoic acid]", "values": [{"measurement": "cleavage activity in the presence of inhibitor", "result": "inhibited cleavage activity"}]}]}
